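Each compound was tested at five concentrations against cells in 96-well plates for 48 hours. GI50: concentration for 50% inhibition of growth.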 Calls of active or inactive are those of the source. Cut-off read from the data, not from the text of the source: active = GI50 up to about 1.1 µM and inactive = higher.
Columns and labels:
Assay in all cases: DTP human tumour cell line panel, 48 h
OVCAR-4 = system: OVCAR-4
A549 = system: A549
KM12 = system: KM12
SF-295 = system: SF-295
SW-620 = system: SW-620
K562 = system: K562
OVCAR-8 = system: OVCAR-8
SF-268 = system: SF-268
HCT-15 = system: HCT-15
IGROV-1 = system: IGROV-1
SN12C = system: SN12C
EKVX = system: EKVX
HOP-62 = system: HOP-62
NCI-H522 = system: NCI-H522
UACC-257 = system: UACC-257
COLO 205 = system: COLO 205
SR = system: SR
MDA-MB-435 = system: MDA-MB-435
NCI/ADR-RES = system: NCI/ADR-RES
Hs-578T = system: Hs-578T

Row | SMILES | GI50 (OVCAR-4) | GI50 (A549) | GI50 (KM12) | GI50 (SF-295) | GI50 (SW-620) | GI50 (K562) | GI50 (OVCAR-8) | GI50 (SF-268) | GI50 (HCT-15) | GI50 (IGROV-1) | GI50 (SN12C) | GI50 (EKVX) | GI50 (HOP-62) | GI50 (NCI-H522) | GI50 (UACC-257) | GI50 (COLO 205) | GI50 (SR) | GI50 (MDA-MB-435) | GI50 (NCI/ADR-RES) | GI50 (Hs-578T)
1 | CC1CC2C3CCC4=CC(=O)C=CC4(C)C3(F)C(O)CC2(C)C1(O)C(=O)CO.Cc1cc(NS(=O)(=O)c2ccc(/N=N\c3cc(/N=N/c4ccc(S(=O)(=O)Nc5cc(C)nc(C)n5)cc4)c(OC(=O)C(Cl)Cl)c4cccc(NC(=O)C(Cl)Cl)c34)cc2)nc(C)n1 | 19.8 µM (inactive) | 27 µM (inactive) | 16.6 µM (inactive) | 28.2 µM (inactive) | 20.8 µM (inactive) | 30.6 µM (inactive) | 22.9 µM (inactive) | 26.4 µM (inactive) | 15.6 µM | 24.5 µM (inactive) | 12.6 µM (inactive) | 26.2 µM (inactive) | 35.2 µM (inactive) | 15 µM (inactive) | 29.9 µM (inactive) | 28.2 µM (inactive) | 25.4 µM (inactive) |  |  | 
2 | Cc1cc2c(=O)cc(-c3ccc(C(=O)O)cc3)oc2c(C(=O)O)c1C | > 100 µM (inactive) | > 100 µM (inactive) | > 100 µM (inactive) | > 100 µM (inactive) | > 100 µM (inactive) | > 100 µM (inactive) | > 100 µM (inactive) |  | > 100 µM | > 100 µM (inactive) | > 100 µM (inactive) | > 100 µM (inactive) | > 100 µM (inactive) | > 100 µM (inactive) | > 100 µM (inactive) | > 100 µM (inactive) | > 100 µM (inactive) |  |  | 
3 | COc1ccc(OC)c2c(C(=O)O)c(C(C)c3ccccc3)ccc12 (stereo unspecified) | > 100 µM (inactive) | > 100 µM (inactive) | > 100 µM (inactive) | > 100 µM (inactive) | > 100 µM (inactive) | > 100 µM (inactive) | > 100 µM (inactive) | > 100 µM (inactive) | > 100 µM | > 100 µM (inactive) | > 100 µM (inactive) | > 100 µM (inactive) | > 100 µM (inactive) | > 100 µM (inactive) | > 100 µM (inactive) | > 100 µM (inactive) | > 100 µM (inactive) |  |  | 
4 | COC(=O)C(C(=O)C(=O)Nc1ccc(Br)cc1)c1nc2ccc(Cl)cc2nc1O (stereo unspecified) | > 34.5 µM (inactive) | > 100 µM (inactive) | > 66.5 µM (inactive) | > 100 µM (inactive) | > 20 µM (inactive) | > 67.8 µM (inactive) | > 100 µM (inactive) | > 100 µM (inactive) | > 41.2 µM | > 100 µM (inactive) | > 100 µM (inactive) | > 100 µM (inactive) | > 100 µM (inactive) | > 100 µM (inactive) | > 100 µM (inactive) | > 45.2 µM (inactive) | > 100 µM (inactive) |  |  | 
5 | C[C@]12CCC[C@H](O)[C@H]1C[C@H](CO)CC2 | > 100 µM (inactive) | > 100 µM (inactive) | > 100 µM (inactive) | > 100 µM (inactive) | > 100 µM (inactive) | > 100 µM (inactive) | > 100 µM (inactive) | > 100 µM (inactive) | > 100 µM | > 100 µM (inactive) | > 100 µM (inactive) |  | > 100 µM (inactive) | > 100 µM (inactive) | > 100 µM (inactive) | > 100 µM (inactive) | > 100 µM (inactive) |  |  | 
6 | COc1ccc(C2Oc3c(cccc3-c3c(-c4ccc(O)cc4)oc4cc(O)cc(O)c4c3=O)C(=O)C2O)cc1O (stereo unspecified) | > 100 µM (inactive) | > 100 µM (inactive) |  | > 100 µM (inactive) | > 100 µM (inactive) | > 100 µM (inactive) | > 100 µM (inactive) | > 100 µM (inactive) | > 100 µM | > 100 µM (inactive) | > 100 µM (inactive) | > 100 µM (inactive) | > 100 µM (inactive) |  | > 100 µM (inactive) | > 100 µM (inactive) | > 100 µM (inactive) | > 100 µM (inactive) | > 100 µM (inactive) | 
7 | CCOC(=O)C1=C(NC(C)(C)C)OCC1=O | > 100 µM (inactive) | > 100 µM (inactive) | > 100 µM (inactive) | > 100 µM (inactive) | > 100 µM (inactive) | > 100 µM (inactive) | > 100 µM (inactive) | > 100 µM (inactive) | > 100 µM | > 100 µM (inactive) | > 100 µM (inactive) |  | > 100 µM (inactive) | > 100 µM (inactive) | > 100 µM (inactive) | > 100 µM (inactive) | > 100 µM (inactive) |  |  | 
8 | C=C1C2CCCC1C1(S(C)(=O)=O)CCCCC21O (stereo unspecified) | > 100 µM (inactive) | > 100 µM (inactive) | > 100 µM (inactive) | > 100 µM (inactive) | > 100 µM (inactive) | > 100 µM (inactive) | > 100 µM (inactive) |  | > 100 µM | > 100 µM (inactive) | > 100 µM (inactive) | > 100 µM (inactive) |  | > 100 µM (inactive) | > 100 µM (inactive) | > 100 µM (inactive) | > 100 µM (inactive) |  |  | 
9 | NC(=O)COC(=O)c1c(Cl)nc2sccn12 | > 100 µM (inactive) | > 100 µM (inactive) | > 100 µM (inactive) | > 100 µM (inactive) | > 35.3 µM (inactive) | > 63.2 µM (inactive) | > 100 µM (inactive) | > 100 µM (inactive) | > 40.3 µM | > 100 µM (inactive) | > 100 µM (inactive) | > 100 µM (inactive) | > 100 µM (inactive) | > 100 µM (inactive) | > 100 µM (inactive) | > 60.3 µM (inactive) | 33.8 µM (inactive) |  |  | 
10 | O=c1[nH]ccc(CNC23CC4CC(CC(C4)C2)C3)c1O | > 100 µM (inactive) | > 100 µM (inactive) | > 100 µM (inactive) | 78.2 µM (inactive) | > 100 µM (inactive) | 88.3 µM (inactive) | > 100 µM (inactive) |  | 41.8 µM | > 100 µM (inactive) | 45.8 µM (inactive) | 80.4 µM (inactive) | > 100 µM (inactive) | 24.8 µM (inactive) | > 100 µM (inactive) | > 100 µM (inactive) | 45.2 µM (inactive) |  |  | 
11 | CCC1CN2CCc3cc(OC)c(OC)cc3C2CC1CC1c2cc(OC)c(OC)cc2CCN1C(=O)C1CCCN1 (stereo unspecified) | 25.5 µM (inactive) | 26.4 µM (inactive) | 35.2 µM (inactive) | 41 µM (inactive) | 28.8 µM (inactive) | 20.5 µM (inactive) | 38.8 µM (inactive) | 32.8 µM (inactive) | 31.7 µM | 28.4 µM (inactive) | 37.5 µM (inactive) | 36.6 µM (inactive) | 32.5 µM (inactive) | 16.3 µM (inactive) | 17.2 µM (inactive) | 13 µM (inactive) | 19.1 µM (inactive) |  |  | 
12 | OCCCCCCOc1ccc(-c2cc(-c3ccccn3)nc(-c3ccccn3)c2)cc1 | 0.177 µM (active) | 0.23 µM (active) | 0.388 µM (active) | 0.194 µM (active) | 0.367 µM (active) | 0.0728 µM (active) | 0.136 µM (active) | 0.0668 µM (active) | 0.109 µM | 0.205 µM (active) | 0.424 µM (active) | 0.18 µM (active) | 0.172 µM (active) | 0.536 µM (active) | 0.397 µM (active) | 0.372 µM (active) | 0.0286 µM (active) | 0.462 µM (active) |  | 0.419 µM (active)
13 | O=C(O)/C(Cl)=C(\Cl)C(=O)Nc1ccc(Cl)c(Cl)c1Cl | 19.4 µM (inactive) | 18.5 µM (inactive) | 19.4 µM (inactive) | 18.5 µM (inactive) | 20.5 µM (inactive) | 28 µM (inactive) |  | 25 µM (inactive) | 19.4 µM | 20.7 µM (inactive) | 20.9 µM (inactive) | 22.6 µM (inactive) | 29.5 µM (inactive) | 10.9 µM (inactive) | 18.5 µM (inactive) | 20 µM (inactive) | 25.1 µM (inactive) |  |  | 
14 | C=CCc1cc2cccc(OC)c2oc1=O | > 100 µM (inactive) | > 100 µM (inactive) | > 100 µM (inactive) | > 100 µM (inactive) | > 100 µM (inactive) | 75.5 µM (inactive) | > 100 µM (inactive) | > 100 µM (inactive) | > 100 µM | > 100 µM (inactive) | > 100 µM (inactive) | 44.3 µM (inactive) | > 100 µM (inactive) | 6.9 µM (inactive) | > 100 µM (inactive) | > 100 µM (inactive) | 44.3 µM (inactive) |  |  | 
15 | COc1cc(Br)c(/C=N\c2cccc3ccc(OS(=O)(=O)c4cccc([N+](=O)[O-])c4)cc23)cc1OC | 28.1 µM (inactive) | 52.6 µM (inactive) | 30.7 µM (inactive) | 20.4 µM (inactive) | 48.1 µM (inactive) | 21.1 µM (inactive) | 24 µM (inactive) | 19.4 µM (inactive) | 24.5 µM | 58.2 µM (inactive) | 33.9 µM (inactive) | 77.3 µM (inactive) | 34.4 µM (inactive) | 22.1 µM (inactive) | 41.1 µM (inactive) | 66.8 µM (inactive) | 20.2 µM (inactive) |  |  | 
16 | O=C(O)Cc1ccc(-n2nnc3c(=O)[nH][nH]c(=O)c32)cc1 | > 100 µM (inactive) | > 100 µM (inactive) | > 100 µM (inactive) | > 100 µM (inactive) |  | > 100 µM (inactive) | > 100 µM (inactive) |  | > 100 µM |  | > 100 µM (inactive) | > 100 µM (inactive) | > 100 µM (inactive) |  | > 100 µM (inactive) | > 100 µM (inactive) | > 100 µM (inactive) | > 100 µM (inactive) | > 100 µM (inactive) | 
17 | CCOC(OCC)C(CC)[Se]c1ccccc1 (stereo unspecified) | 13.3 µM (inactive) | > 100 µM (inactive) | > 100 µM (inactive) | > 100 µM (inactive) |  | > 100 µM (inactive) | > 100 µM (inactive) | 72.6 µM (inactive) | 15.5 µM | > 100 µM (inactive) | 41 µM (inactive) | > 100 µM (inactive) | > 100 µM (inactive) | 15.6 µM (inactive) | > 100 µM (inactive) | 39.8 µM (inactive) | 10.1 µM (inactive) |  |  | 
